According to ChEMBL document CHEMBL2069234, “Aristoxazole analogues. Conversion of 8-nitro-1-naphthoic acid to 2-methylnaphtho[1,2-d]oxazole-9-carboxylic acid: comments on the chemical mechanism of formation of DNA adducts by the aristolochic acids” (J Nat Prod, 2012):

Key:
[1] = system: Salmonella typhimurium; experiment: Mutagenicity in Salmonella typhimurium TA100; assay type: toxicity, organism-based; settings: salmonella enterica subsp. enterica serovar typhimurium
[2] = Drug conversion assessed as formation of oxazole derivatives in presence of Zn/HOAc; assay type: physicochemical

In the case of `COc1cccc2c1cc([N+](=O)[O-])c1c(C(=O)O)cc3c(c12)OCO3` [ARISTOLOCHIC ACID], the Activity [1] is reported as “Toxic” and the Drug metabolism [2] is reported as “Active”.
